How the values were obtained:
Enterobacter cloacae [1] = assay: Antibacterial activity against Enterobactor cloacae 1321E; format: functional
Staphylococcus aureus [2] = assay: Antibacterial activity against Staphylococcus aureus SG511; format: functional
Klebsiella aerogenes = assay: Antibacterial activity against Klebsiella aerogenes 1522E; format: functional
Streptococcus pyogenes [3] = assay: Antibacterial activity against Streptococcus pyogenes 308A; format: functional
Escherichia coli [4] = assay: Antibacterial activity against Escherichia coli DC2; format: functional
Staphylococcus aureus [5] = assay: Antibacterial activity against Staphylococcus aureus 285; format: functional
Pseudomonas aeruginosa [6] = assay: Antibacterial activity against Pseudomonas aeruginosa 9027; format: functional
Salmonella typhimurium = assay: Antibacterial activity against Salmonella Typhimurium; format: functional, Salmonella enterica subsp. enterica serovar Typhimurium; conditions: Salmonella enterica
Escherichia coli [7] = assay: Antibacterial activity against Escherichia coli TEM; format: functional
Streptococcus pyogenes [8] = assay: Antibacterial activity against Streptococcus pyogenes 77A; format: functional
Streptococcus agalactiae = assay: Antibacterial activity against Streptococcus agalactiae B; format: functional
Salmonella typhi = assay: Antibacterial activity against Salmonella typhi; format: functional, Salmonella enterica subsp. enterica serovar Typhi; conditions: Salmonella enterica
Micrococcus luteus = assay: Antibacterial activity against Micrococcus luteus ATCC 9341; format: functional
Escherichia coli [9] = assay: Antibacterial activity against Escherichia coli 086; format: functional
Providencia rettgeri [10] = assay: Antibacterial activity against Proteus rettgeri 936; format: functional
Escherichia coli [11] = assay: Antibacterial activity against Escherichia coli 0126; format: functional
Escherichia coli [12] = assay: Antibacterial activity against Escherichia coil V6311/65; format: functional
Escherichia coli [13] = assay: Antibacterial activity against Escherichia coil 1507; format: functional
Staphylococcus aureus [14] = assay: Antibacterial activity against Staphylococcus aureus 209P; format: functional
[15] = system: Corynebacterium diphtheriae; assay: Antibacterial activity against Corynebacterium diphtheriae; format: functional
Enterobacter cloacae [16] = assay: Antibacterial activity against Enterobacter cloacae 417; format: functional
Serratia marcescens [17] = assay: Antibacterial activity against Serratia marcescens 14273; format: functional
Escherichia coli [18] = assay: Antibacterial activity against Escherichia coli 0114; format: functional
Enterobacter cloacae [19] = assay: Antibacterial activity against Enterobacter cloacae; format: functional
Enterococcus faecium = assay: Antibacterial activity against Streptococcus faecium 77A; format: functional
[20] = Antibacterial activity against Salmonella give; format: functional, Salmonella enterica subsp. enterica serovar Give; conditions: Salmonella enterica
Staphylococcus aureus [21] = assay: Antibacterial activity against Staphylococcus aureus 503; format: functional
Proteus mirabilis [22] = assay: Antibacterial activity against Proteus mirabilis 112/3; format: functional
Enterococcus durans = assay: Antibacterial activity against Streptococcus durans D; format: functional
Salmonella = assay: Antibacterial activity against Salmonella orion; format: functional
Pseudomonas aeruginosa [23] = assay: Antibacterial activity against Pseudomonas aeruginosa 880/2; format: functional
Serratia marcescens [24] = assay: Antibacterial activity against Serratia marcescens 6093; format: functional
Bacillus subtilis = assay: Antibacterial activity against Bacillus subtilts ATCC 6633; format: functional
Priestia megaterium = assay: Antibacterial activity against Bacillus megaterium; format: functional
Pseudomonas aeruginosa [25] = assay: Antibacterial activity against Pseudomonas aeruginosa 110/2; format: functional
[26] = Antibacterial activity against Salmonella oranienberg; format: functional, Salmonella enterica subsp. enterica serovar Oranienburg; conditions: Salmonella enterica
Staphylococcus aureus [27] = assay: Antibacterial activity against Staphylococcus aureus giorgio; format: functional
Proteus mirabilis [28] = assay: Antibacterial activity against Proteus mirabilis 174/3; format: functional
Burkholderia cepacia = assay: Antibacterial activity against Pseudomonas cepacia; format: functional
Pseudomonas aeruginosa [29] = assay: Antibacterial activity against Pseudomonas aeruginosa 77/2; format: functional
Providencia rettgeri [30] = assay: Antibacterial activity against Proteus rettgeri 937; format: functional
Proteus vulgaris = assay: Antibacterial activity against Proteus vulgaris 868; format: functional
Pasteurella multocida = assay: Antibacterial activity against Pasteurella multocida; format: functional
Trueperella pyogenes = assay: Antibacterial activity against Corynebacterium pyogenes; format: functional
Serratia marcescens [31] = assay: Antibacterial activity against Serratia marcescens 370; format: functional
Klebsiella pneumoniae = assay: Antibacterial activity against Klebsiella pneumonise 477; format: functional

Measured: MIC

CCCNS(=O)(=O)NC/C(=N\OC)[C@@H]1C[C@H](SC2=C(C(=O)O)N3C(=O)[C@H]([C@@H](C)O)[C@H]3[C@H]2C)CN1
0.195 µg/mL: Enterobacter cloacae [1] | Staphylococcus aureus [2] | Klebsiella aerogenes | Staphylococcus aureus [5] | Escherichia coli [7]
0.049 µg/mL: Streptococcus pyogenes [3]
12.5 µg/mL: Pseudomonas aeruginosa [6]
0.098 µg/mL: Escherichia coli [4] | Salmonella typhimurium
0.025 µg/mL: Streptococcus pyogenes [8]

C[C@@H](O)[C@H]1C(=O)N2C(C(=O)O)=C(S[C@@H]3CN[C@H](C(=O)N(C)C)C3)[C@H](C)[C@H]12 [MEROPENEM]
0.195 µg/mL: Pseudomonas aeruginosa [6]
0.013 µg/mL: Streptococcus pyogenes [3]
0.01 µg/mL: Salmonella typhi | Escherichia coli [12] | Enterobacter cloacae [16] | Enterococcus faecium
0.4 µg/mL: Pseudomonas aeruginosa [25] | Burkholderia cepacia
< 0.01 µg/mL: Streptococcus pyogenes [8]
0.049 µg/mL: Klebsiella aerogenes
0.025 µg/mL: Enterobacter cloacae [1] | Escherichia coli [4] | Salmonella typhimurium | Escherichia coli [7]
0.2 µg/mL: Serratia marcescens [17] | Pseudomonas aeruginosa [23]
0.03 µg/mL: Escherichia coli [13] | Escherichia coli [18] | Enterobacter cloacae [19] | [20] | Trueperella pyogenes
0.8 µg/mL: Enterococcus durans | Pseudomonas aeruginosa [29]
0.098 µg/mL: Staphylococcus aureus [2] | Staphylococcus aureus [5]
0.1 µg/mL: Providencia rettgeri [10] | Staphylococcus aureus [14] | Proteus mirabilis [22] | Salmonella | Staphylococcus aureus [27] | Proteus mirabilis [28] | Proteus vulgaris
0.05 µg/mL: all other assays above
